Biological target: T1, HMGB1 (HMGB1-His) (Homo sapiens, UniProt P09429)
T1 sequence (P09429 1-215): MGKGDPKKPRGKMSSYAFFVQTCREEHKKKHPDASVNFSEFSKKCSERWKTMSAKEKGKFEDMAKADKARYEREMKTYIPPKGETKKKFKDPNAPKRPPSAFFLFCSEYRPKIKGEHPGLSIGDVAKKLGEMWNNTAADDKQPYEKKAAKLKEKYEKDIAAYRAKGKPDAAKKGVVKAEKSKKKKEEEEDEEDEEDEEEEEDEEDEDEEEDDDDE
Experiment: microscale thermophoresis
Format: binding

- Kd: 65.5 µM
Structure (SMILES): CN1CCN(c2ccc(C(=O)Nc3n[nH]c4ccc(Cc5cc(F)cc(F)c5)cc34)c(NC3CCOCC3)c2)CC1 [entrectinib]

Source: article PMC12758333 (Autophagy, 2025)
